Numbers after ± are expanded uncertainties.
conditions: Liquid; Ebulliometric method (Recirculating still)

Compound	Normal boiling temperature [°C]
C[S+](C)[O-] [dimethyl sulfoxide]	188.77 ± 0.2
CN(C)C=O [dimethylformamide]	152.6 ± 0.2
CC(=O)O [acetic acid]	118 ± 0.2

Reference: the NIST ThermoML archive (doi:10.1016/j.fluid.2008.09.010)
